Measurements: ChEMBL document CHEMBL1201862, “PubChem BioAssay data set” (2004)
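Interpolation was linear, between the two tested concentrations surrounding the appropriate level; five concentrations were tested over 48 hours in 96-well plates. Abbreviation: GI50, concentration required for 50% inhibition of growth.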 Activity calls are given as the source filed them. Rule as the data show it: active = GI50 up to about 1.1 µM and inactive = higher.

How the values were obtained:
Assay in all cases: growth of human tumour cells (NCI), 48 h
NCI-H226 = system: NCI-H226
OVCAR-8 = system: OVCAR-8
SK-OV-3 = system: SK-OV-3
HCT-15 = system: HCT-15
HOP-18 = system: HOP-18
ACHN = system: ACHN
LOX IMVI = system: LOX IMVI
SF-539 = system: SF-539
DMS-114 = system: DMS-114
UO-31 = system: UO-31
UACC-62 = system: UACC-62
XF498 = system: XF498
COLO 205 = system: COLO 205
DLD-1 = system: DLD-1
OVCAR-4 = system: OVCAR-4
RXF 631 = system: RXF 631
Malme-3M = system: Malme-3M
M19-MEL = system: M19-MEL
HOP-92 = system: HOP-92
SR = system: SR
HCC 2998 = system: HCC 2998
CCRF-CEM = system: CCRF-CEM
SW-620 = system: SW-620
K562 = system: K562
HOP-62 = system: HOP-62
SK-MEL-5 = system: SK-MEL-5
SN12C = system: SN12C
M14 = system: M14
NCI-H522 = system: NCI-H522
SNB-78 = system: SNB-78
SK-MEL-28 = system: SK-MEL-28
IGROV-1 = system: IGROV-1
RPMI-8226 = system: RPMI-8226
EKVX = system: EKVX
U-251 = system: U-251
SF-268 = system: SF-268
TK-10 = system: TK-10
SF-295 = system: SF-295
HT-29 = system: HT-29
HL-60 = system: HL-60
A498 = system: A498
HCT-116 = system: HCT-116
NCI-H23 = system: NCI-H23
CAKI-1 = system: CAKI-1
UACC-257 = system: UACC-257
A549 = system: A549
786-0 = system: 786-0
LXFL 529 = system: LXFL 529
SNB-75 = system: SNB-75
NCI-H460 = system: NCI-H460
RXF 393 = system: RXF 393
DMS-273 = system: DMS-273
SNB-19 = system: SNB-19
KM-20L2 = system: KM-20L2
KM12 = system: KM12
OVCAR-5 = system: OVCAR-5
MOLT-4 = system: MOLT-4
OVCAR-3 = system: OVCAR-3
SK-MEL-2 = system: SK-MEL-2

For `Cc1ccc(Cl)c(NC(=O)C(=O)C(C(=O)c2ccncc2)C2OC(=O)c3ccccc32)c1` (stereo not drawn), the GI50 (NCI-H226) was > 100 µM (inactive), the GI50 (OVCAR-8) was > 100 µM (inactive) and the GI50 (SK-OV-3) was > 100 µM (inactive). For the same compound, the GI50 (HCT-15) was over 100 µM, the GI50 (HOP-18) was > 100 µM (inactive) and the GI50 (ACHN) was > 100 µM (inactive). The GI50 (LOX IMVI) was > 100 µM (inactive), the GI50 (SF-539) was > 100 µM (inactive) and the GI50 (DMS-114) was > 100 µM (inactive). For the same compound, the GI50 (UO-31) was > 100 µM (inactive), the GI50 (UACC-62) was > 100 µM (inactive) and the GI50 (XF498) was > 100 µM (inactive). The GI50 (COLO 205) was > 100 µM (inactive), the GI50 (DLD-1) was > 100 µM (inactive) and the GI50 (OVCAR-4) was > 100 µM (inactive). The GI50 (RXF 631) was > 100 µM (inactive), the GI50 (Malme-3M) was > 100 µM (inactive) and the GI50 (M19-MEL) was > 100 µM (inactive). The GI50 (HOP-92) was > 100 µM (inactive), the GI50 (SR) was > 100 µM (inactive) and the GI50 (HCC 2998) was > 100 µM (inactive). The GI50 (CCRF-CEM) was 0.512 µM (active), the GI50 (SW-620) was > 100 µM (inactive) and the GI50 (K562) was > 100 µM (inactive). For the same compound, the GI50 (HOP-62) was > 100 µM (inactive), the GI50 (SK-MEL-5) was > 100 µM (inactive) and the GI50 (SN12C) was > 100 µM (inactive). For the same compound, the GI50 (M14) was > 100 µM (inactive), the GI50 (NCI-H522) was > 100 µM (inactive) and the GI50 (SNB-78) was > 100 µM (inactive). The GI50 (SK-MEL-28) was > 100 µM (inactive), the GI50 (IGROV-1) was > 100 µM (inactive) and the GI50 (RPMI-8226) was > 100 µM (inactive). For the same compound, the GI50 (EKVX) was > 100 µM (inactive), the GI50 (U-251) was > 100 µM (inactive) and the GI50 (SF-268) was > 100 µM (inactive). For the same compound, the GI50 (TK-10) was > 100 µM (inactive), the GI50 (SF-295) was > 100 µM (inactive) and the GI50 (HT-29) was > 100 µM (inactive). The GI50 (HL-60) was > 100 µM (inactive), the GI50 (A498) was > 100 µM (inactive) and the GI50 (HCT-116) was > 100 µM (inactive). For the same compound, the GI50 (NCI-H23) was > 100 µM (inactive), the GI50 (CAKI-1) was > 100 µM (inactive) and the GI50 (UACC-257) was > 100 µM (inactive). For the same compound, the GI50 (A549) was > 100 µM (inactive), the GI50 (786-0) was > 100 µM (inactive) and the GI50 (LXFL 529) was > 100 µM (inactive). For the same compound, the GI50 (SNB-75) was > 100 µM (inactive), the GI50 (NCI-H460) was > 100 µM (inactive) and the GI50 (RXF 393) was > 100 µM (inactive).

In the case of `O=c1cccccc1NCCCNc1cccccc1=O`, the GI50 (NCI-H226) is reported as > 100 µM (inactive), the GI50 (OVCAR-8) is reported as > 100 µM (inactive) and the GI50 (SK-OV-3) is reported as > 100 µM (inactive). The GI50 (HCT-15) was over 100 µM, the GI50 (ACHN) was > 100 µM (inactive) and the GI50 (LOX IMVI) was > 100 µM (inactive). For the same compound, the GI50 (SF-539) was > 100 µM (inactive), the GI50 (DMS-273) was > 100 µM (inactive) and the GI50 (DMS-114) was > 100 µM (inactive). The GI50 (SNB-19) was > 100 µM (inactive), the GI50 (UO-31) was > 100 µM (inactive) and the GI50 (UACC-62) was > 100 µM (inactive). For the same compound, the GI50 (KM-20L2) was > 100 µM (inactive), the GI50 (XF498) was > 100 µM (inactive) and the GI50 (COLO 205) was > 100 µM (inactive). For the same compound, the GI50 (RXF 631) was 31 µM (inactive), the GI50 (Malme-3M) was 11.9 µM (inactive) and the GI50 (M19-MEL) was > 100 µM (inactive). The GI50 (HOP-92) was > 100 µM (inactive), the GI50 (SR) was > 100 µM (inactive) and the GI50 (CCRF-CEM) was > 100 µM (inactive). For the same compound, the GI50 (SW-620) was > 100 µM (inactive), the GI50 (K562) was > 100 µM (inactive) and the GI50 (HOP-62) was > 100 µM (inactive). The GI50 (SN12C) was 15.9 µM (inactive), the GI50 (M14) was > 100 µM (inactive) and the GI50 (NCI-H522) was > 100 µM (inactive). The GI50 (SNB-78) was > 100 µM (inactive), the GI50 (IGROV-1) was > 100 µM (inactive) and the GI50 (RPMI-8226) was > 100 µM (inactive). For the same compound, the GI50 (EKVX) was > 100 µM (inactive), the GI50 (U-251) was > 100 µM (inactive) and the GI50 (KM12) was > 100 µM (inactive). The GI50 (OVCAR-5) was > 100 µM (inactive), the GI50 (SF-268) was > 100 µM (inactive) and the GI50 (SF-295) was > 100 µM (inactive). The GI50 (HT-29) was 88.3 µM (inactive), the GI50 (HL-60) was 43.2 µM (inactive) and the GI50 (HCT-116) was > 100 µM (inactive). For the same compound, the GI50 (NCI-H23) was > 100 µM (inactive), the GI50 (CAKI-1) was > 100 µM (inactive) and the GI50 (UACC-257) was > 100 µM (inactive). The GI50 (A549) was > 100 µM (inactive), the GI50 (786-0) was > 100 µM (inactive) and the GI50 (MOLT-4) was > 100 µM (inactive). The GI50 (OVCAR-3) was > 100 µM (inactive), the GI50 (LXFL 529) was > 100 µM (inactive) and the GI50 (NCI-H460) was 41.6 µM (inactive). For the same compound, the GI50 (RXF 393) was > 100 µM (inactive) and the GI50 (SK-MEL-2) was > 100 µM (inactive).

For `O=C1OC(c2ccccc2)C2CC3CC4(CCC3CN12)OCCO4` (stereo not drawn), the GI50 (NCI-H226) was > 100 µM (inactive), the GI50 (OVCAR-8) was > 100 µM (inactive) and the GI50 (SK-OV-3) was > 100 µM (inactive). For the same compound, the GI50 (HCT-15) was over 100 µM, the GI50 (LOX IMVI) was > 100 µM (inactive) and the GI50 (SF-539) was > 100 µM (inactive). For the same compound, the GI50 (DMS-273) was > 100 µM (inactive), the GI50 (SNB-19) was > 100 µM (inactive) and the GI50 (UO-31) was > 100 µM (inactive). For the same compound, the GI50 (UACC-62) was 21.5 µM (inactive), the GI50 (KM-20L2) was > 100 µM (inactive) and the GI50 (XF498) was 70.8 µM (inactive). For the same compound, the GI50 (COLO 205) was > 100 µM (inactive), the GI50 (OVCAR-4) was 88.5 µM (inactive) and the GI50 (RXF 631) was > 100 µM (inactive). For the same compound, the GI50 (HOP-92) was 80 µM (inactive), the GI50 (SR) was > 100 µM (inactive) and the GI50 (CCRF-CEM) was > 100 µM (inactive). The GI50 (SW-620) was > 100 µM (inactive), the GI50 (K562) was 45.9 µM (inactive) and the GI50 (HOP-62) was > 100 µM (inactive). For the same compound, the GI50 (SK-MEL-5) was 17.9 µM (inactive), the GI50 (SN12C) was > 100 µM (inactive) and the GI50 (M14) was > 100 µM (inactive). The GI50 (NCI-H522) was 0.142 µM (active), the GI50 (SNB-78) was > 100 µM (inactive) and the GI50 (SK-MEL-28) was > 100 µM (inactive). The GI50 (IGROV-1) was > 100 µM (inactive), the GI50 (RPMI-8226) was 94 µM (inactive) and the GI50 (EKVX) was > 100 µM (inactive). For the same compound, the GI50 (U-251) was > 100 µM (inactive), the GI50 (KM12) was > 100 µM (inactive) and the GI50 (OVCAR-5) was > 100 µM (inactive). The GI50 (SF-268) was > 100 µM (inactive), the GI50 (TK-10) was > 100 µM (inactive) and the GI50 (SF-295) was > 100 µM (inactive). For the same compound, the GI50 (HT-29) was > 100 µM (inactive), the GI50 (HL-60) was 67.8 µM (inactive) and the GI50 (A498) was > 100 µM (inactive). For the same compound, the GI50 (HCT-116) was > 100 µM (inactive), the GI50 (NCI-H23) was 36.9 µM (inactive) and the GI50 (CAKI-1) was > 100 µM (inactive). The GI50 (UACC-257) was > 100 µM (inactive), the GI50 (A549) was > 100 µM (inactive) and the GI50 (786-0) was > 100 µM (inactive). The GI50 (MOLT-4) was > 100 µM (inactive), the GI50 (OVCAR-3) was > 100 µM (inactive) and the GI50 (LXFL 529) was 32.7 µM (inactive). For the same compound, the GI50 (SNB-75) was 52 µM (inactive), the GI50 (NCI-H460) was > 100 µM (inactive) and the GI50 (RXF 393) was > 100 µM (inactive). The GI50 (SK-MEL-2) was > 100 µM (inactive).
